Experimental data reported in US4007165A (priority 1974, dated 1977).
Counter-ions that a name gives are not always drawn. Like-named read-outs stand apart in the source and are kept apart here.

Tests used:
[1] = cited from earlier work
[2] = commercial compound, background statement; cited from earlier work
[3] = Curing of unsaturated polyester-styrene resin
Protocol: An unsaturated polyester resin was made by reacting maleic anhydride (1.0 mole), phthalic anhydride (1.0 mole), and propylene glycol (2.2 moles) until an acid number of 45-50 was obtained. To this was added hydroquinone at a 0.013% concentration. Seven parts of this unsaturated polyester was diluted with 3 parts of monomeric styrene to obtain a homogeneous blend having a viscosity of 13.08 poise and a specific gravity of 1.14.
To 20 grams of this blend was added 0.128 gram of alpha-(tert.-butylazo)isobutyronitrile and the resultant composition placed in a constant temperature bath at 212° F. (100° C.). […] At 180° F. (82.2° C.), a peak exotherm of 381° F. (193.9° C.) was obtained in 13.3 minutes. The resultant cured materials were very hard.
The procedure of Example III was used at 212° F. (100° C.) and 240° F. (115.6° C.) where peak exotherms of 414° F. (212.2° C.) and 440° F. (226.7° C.) were obtained after 10.0 and 5.3 minutes respectively using 0.2 gram of the 1-tert.-butylazo-1-cyanocyclohexane. The resultant cured resins were very hard.
The curing procedure and resin are described in Example III.

[4] = High pressure polymerization of ethylene
[5] = Solubility; assay type: physicochemical; settings: petroleum and other organic solvents
[6] = Thermal decomposition half-life; assay type: physicochemical
Protocol: (§1) It produces 179 cc. of gas per gram at 110° C. The following half-life data have been determined:
The following half-life data have been determined by gas evolution technique using trichlorobenzene as the solvent: […]

[7] = Preliminary toxicological studies / toxicity
[8] = Gas volume generated on thermal decomposition; assay type: physicochemical; settings: 130° C.
Protocol: as §1
It produces 146 cc. of gas per gram at 130° C.

[9] = Curing of unsaturated polyester-styrene resin; remark: listed apart in the source
[10] = Polymerization of styrene, dilatometer rates; settings: rate at 10% conversion
Protocol: A solution of styrene containing 5 × 10^-^4 moles per deciliter of alpha-(tert.-butylazo)isobutyronitrile was heated at 85° C. and the change in density, which is a measure of polymer formation, was followed by means of a dilatometer to measure polymerization rates at 5% and 10% conversion to polystyrene. […] Without the alpha-(tert.-butylazo)-isobutyronitrile, the 5 and 10% rates were 0.92 × 10^-^3 moles per liter per minute. Thus, this azo compound initiated the polymerization of styrene at 85° C.
The procedure of Example II was used at 85° C. and 100° C. […] Without the 1-tert.-butylazo-1-cyanocyclohexane, the 5% and 10% rates at 100° C. were 2.81 × 10^-^3 moles per liter per minute.
A solution of styrene containing 5×10^^-4 moles per deciliter of the tert.-alkyl-α-substituted-azoalkane was heated in a constant temperature oil bath (the temperature of the bath depending on the thermal stability of the individual azo compounds) and the change in density, which is a measure of polymer formation, was followed by means of a dilatometer to measure polymerization rates (Rp) at 5% and 10% conversion to polystyrene. The rates obtained at 5% and 10% conversion are recorded in moles per liter per minute in Table LXXXII for the individual azo compounds. Their rate at 10% conversion (f1) is divided by the rate of a standard (f2) at the same temperature and concentration to give an efficiency rating f1 / f2.

[11] = Emulsion polymerization of ethyl acrylate; settings: 3.65 × 10^-^4 moles initiator, 85°-87° C.
Protocol: An emulsion containing 50 g. of deionized water, 40 g. ethyl acrylate, 4.8 g. Triton X-200, Rohm & Haas anionic surfactant, and 0.0769 g. (3.65 × 10^-^4 moles) α-tert-butylazo-α-methyl-γ-carboxy-butyronitrile (from Example X) was prepared. Approximately 25 g. of the emulsion was placed in a 250 ml. 4-neck round bottom flask equipped with a mechanical stirrer, thermometer and condenser. Nitrogen was passed through the system and the contents of the flask were heated to the reflux temperature of 82° C. When the temperature rose to 90° C., indicating polymerization was occurring, the balance of the emulsion was slowly added from a self-venting addition funnel, maintaining the temperature at 85°-87° C. At the end of the addition the temperature was raised to 95° C. for 5 minutes, a very small amount of hydroquinone added and the reaction cooled to room temperature. The total reaction times was 11/3 hours. The final pH was 3.6. A 5 g. aliquot was weighed into a tared dish and the monomers and water evaporated and the conversion of monomer to polymer was determined to be 94%.
A similar polymerization was run under the same conditions using 3.65 × 10^-^4 moles of the sodium salt of α-tert-butylazo-α-methyl-γ-carboxybutyronitrile as the initiator. The conversion was 92.3% and the final pH was 6.6.

[12] = Oxidation of iodide ion to free iodine
[13] = 180° F. (82.2° C.), 0.128 gram in 20 grams blend
[14] = bath 212° F. (100° C.), 0.128 gram in 20 grams blend
[15] = 85° C., standard f2 benzoyl peroxide
[16] = 180° F. (82.2° C.), 1.0 weight per cent
[17] = 212° F. (100° C.), 1.0 weight per cent
[18] = room temperature, 1.0 weight per cent
[19] = 240° F. (115.6° C.), 1.0 weight per cent
[20] = 265° F. (129.4° C.), 1.0 weight per cent

## CC(C)(C#N)N=NC(C)(C)C#N [2, 2'-AZOBISISOBUTYRONITRILE]
[1]; common organic solvents: aromatic hydrocarbons, dioxane, alcohol, ether, carbon tetrachloride
  solubility: very low or limited solubility
[1]; petroleum hydrocarbon solvents
  solubility: insoluble
[2]
  toxicity: toxic solid

## CC(C)(C)N=NC(C)(C)C#N [Example I, Alpha-(tert.-butylazo)isobutyronitrile]
[3]
  hardness of cured resin: very hard
[3]; [13]
  peak exotherm: 381 ° F.
  time to peak exotherm: 13.3 min
[3]; 212° F. (100° C.)
  quality of cure: excellent cure
[3]; [14]
  peak exotherm: 424 ° F.
  time to peak exotherm: 4.9 min
[4]
  initiator performance: especially advantageous initiators
[5]
  solubility: soluble in petroleum solvents
[6]; 70° C.
  t 1/2: 40.5 h
[7]
  toxicity relative to IXA and its decomposition residue: significantly less toxic

## CC(C)(C)N=NC1(C#N)CCCCC1 [Example IV, 1-tert.-butylazo-1-cyanocyclohexane]
[3]
  hardness of cured resin: very hard
[3]; 212° F. (100° C.), 0.2 gram
  peak exotherm: 414 ° F.
  time to peak exotherm: 10.0 min
[3]; 240° F. (115.6° C.), 0.2 gram
  peak exotherm: 440 ° F.
  time to peak exotherm: 5.3 min
[8]
  gas produced: 146 cc. of gas per gram
[4]
  initiator performance: especially advantageous initiators
[6]; 96.3° C.
  t 1/2: 10.0 h
[6]; 100° C.
  t 1/2: 6.7 h
[6]; 110° C.
  t 1/2: 2.3 h
[6]; 120° C.
  t 1/2: .75 h
[7]
  toxicity relative to IXA and its decomposition residue: significantly less toxic

## CCCCC(C)(CC(C)C)N=NC(C)(C)C (centres unmarked) [Example LXI, 4-t-Butylazo-2,4-dimethyloctane]
[3]; bath 130° C.
  Barcol Hardness: 40
  Minutes to Peak Exotherm: 11.1 min
[9]; bath 130° C.
  peak exotherm: 382 ° F

## CC(C)CC(C)(N=NC(C)(C)C)c1ccccc1 (centres unmarked) [Example LXII, 2-t-Butylazo-2-phenyl-4-methylpentane]
[10]; 70° C., standard f2 benzoyl peroxide
  f1 /f2 efficiency rating: 1.41

## CC(C)(C)N=NC1(c2ccccc2)CCCCC1 [Example LXIII, 1-t-Butylazo-1-phenylcyclohexane]
[3]; bath 100° C.
  Barcol Hardness: 35
  Minutes to Peak Exotherm: 4.8 min
  peak exotherm: 435 ° F
[10]; [15]
  f1 /f2 efficiency rating: 1.32

## CC(C)(C)N=NC(C)(C#N)CCC(=O)O (stereo not drawn) [Example X, alpha-tert.-butylazo-alpha-methyl-gammacarboxybutyronitrile]
[3]
  hardness of cured resin: very hard
[3]; [16]
  peak exotherm: 410 ° F.
  time to peak exotherm: 8.5 min
[3]; [17]
  peak exotherm: 422 ° F.
  time to peak exotherm: 3.8 min
[11]
  conversion of monomer to polymer: 94%
onset
  temperature at which it begins to evolve nitrogen: 85 °C

## CC(C)(C)N=NC(=O)C(C)(C)C [Example XIX, Pivaloyl tert.-butyldiimide]
[3]
  hardness of cured resin: very hard
[3]; [16]
  peak exotherm: 289 ° F.
  time to peak exotherm: 4.9 min
[3]; [18]
  time to peak exotherm: 34.1 min
[9]; [18]
  peak exotherm: 139 ° F.
other
  temperature at which it evolves nitrogen: 35 °C

## CC(C)(C)N=NC1(N=[N+]=[N-])CCCCC1 [XLI, 1-t-butylazo-1-azidocyclohexane]
[10]; 100° C., standard f2 t-butyl perbenzoate
  f1 /f2 efficiency rating: 0.58

## COC(C)(C)CC(C)(N=NC(C)(C)C)N=[N+]=[N-] (centres unmarked) [XLIV, 2-t-butylazo-2-azido-4-methyl-4-methoxypentane]
[10]; [15]
  f1 /f2 efficiency rating: 1.19

## CC(C)(N=NC(N)=O)c1ccccc1 [XVIII, Tert.-cumylazoformamide]
[3]
  hardness of cured resin: very hard
[3]; [19]
  peak exotherm: 422 ° F.
  time to peak exotherm: 10.3 min
[3]; [20]
  peak exotherm: 454 ° F.
  time to peak exotherm: 6.0 min
Room temperature or on melting
  gas/nitrogen evolution or decomposition: rapidly evolves nitrogen upon melting
[12]
  oxidizing of iodide ion: oxidized iodide ion to free iodine

## CC(C)(C)N=NC1=CCCCC1 [XXIII, 1(-tert.-butylazo)cyclohexene]
[9]; room temperature
  gelling of resin: gelled
other
  temperature at which it evolves nitrogen: 60 °C

## COC1(N=NC(C)(C)C)CCCCC1 [XXXV, 1-t-butylazo-1-methoxycyclohexane]
[3]; bath 145° C.
  Minutes to Peak Exotherm: 5.7 min
  peak exotherm: 396 ° F
[9]; bath 145° C.
  Barcol Hardness: 40

## COC(C)(C)CC(C)(N=NC(C)(C)C)OC (centres unmarked) [XXXVIII, 2-t-butylazo-4-methyl-2,4-dimethoxypentane]
[10]; 115° C., standard f2 di-t-butyl peroxide
  f1 /f2 efficiency rating: 0.38

## CC(C)(C)N=NC(C)(C#N)CCC(=O)O (stereo not drawn) [sodium salt of α-tert-butylazo-α-methyl-γ-carboxybutyronitrile]
[11]
  conversion of monomer to polymer: 92.3%
